Measurements as given in the kinase profiling compilation of Christmann-Franck et al. (2016).

Columns and labels:
Experiment in all cases: KINOMEscan competition binding
Conditions in all cases: compound 10.0 µM
IGF1R (human) = IGF1R (human) (UniProt P08069)
FGFR3 (human) = FGFR3 (human) (UniProt P22607)
PRKCD (human) = PRKCD (human) (UniProt Q05655)
NTRK3 (human) = NTRK3 (human) (UniProt Q16288)
LIMK1 (human) = LIMK1 (human) (UniProt P53667)
MARK2 (human) = MARK2 (human) (UniProt Q7KZI7)
CDC42BPB (human) = CDC42BPB (human) (UniProt Q9Y5S2)
DCLK2 (human) = DCLK2 (human) (UniProt Q8N568)
STK24 (human) = STK24 (human) (UniProt Q9Y6E0)
STK24 (human), sequence (Q9Y6E0 whole entry, looked up): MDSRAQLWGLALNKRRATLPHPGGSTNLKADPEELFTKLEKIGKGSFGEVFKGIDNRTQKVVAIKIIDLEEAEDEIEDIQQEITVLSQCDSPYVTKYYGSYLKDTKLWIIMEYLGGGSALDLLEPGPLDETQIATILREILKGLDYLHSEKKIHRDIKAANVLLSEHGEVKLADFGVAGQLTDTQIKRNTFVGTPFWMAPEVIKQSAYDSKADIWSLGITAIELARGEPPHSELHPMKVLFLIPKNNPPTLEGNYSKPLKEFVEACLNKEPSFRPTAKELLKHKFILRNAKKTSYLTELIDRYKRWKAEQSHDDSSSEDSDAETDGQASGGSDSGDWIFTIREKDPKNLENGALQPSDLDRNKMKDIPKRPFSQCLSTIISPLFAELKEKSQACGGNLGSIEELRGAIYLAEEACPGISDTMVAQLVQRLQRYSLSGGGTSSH

CAMKK2 (human) = CAMKK2 (human) (UniProt Q96RR4)
MAP4K4 (human) = MAP4K4 (human) (UniProt O95819)
PRKG2 (human) = PRKG2 (human) (UniProt Q13237)
[1] = molecular target: JAK3 JH1 catalytic (human) (UniProt P52333)
CSK (human) = CSK (human) (UniProt P41240)
ROCK2 (human) = ROCK2 (human) (UniProt O75116)
ROCK2 (human), sequence (O75116 whole entry, looked up): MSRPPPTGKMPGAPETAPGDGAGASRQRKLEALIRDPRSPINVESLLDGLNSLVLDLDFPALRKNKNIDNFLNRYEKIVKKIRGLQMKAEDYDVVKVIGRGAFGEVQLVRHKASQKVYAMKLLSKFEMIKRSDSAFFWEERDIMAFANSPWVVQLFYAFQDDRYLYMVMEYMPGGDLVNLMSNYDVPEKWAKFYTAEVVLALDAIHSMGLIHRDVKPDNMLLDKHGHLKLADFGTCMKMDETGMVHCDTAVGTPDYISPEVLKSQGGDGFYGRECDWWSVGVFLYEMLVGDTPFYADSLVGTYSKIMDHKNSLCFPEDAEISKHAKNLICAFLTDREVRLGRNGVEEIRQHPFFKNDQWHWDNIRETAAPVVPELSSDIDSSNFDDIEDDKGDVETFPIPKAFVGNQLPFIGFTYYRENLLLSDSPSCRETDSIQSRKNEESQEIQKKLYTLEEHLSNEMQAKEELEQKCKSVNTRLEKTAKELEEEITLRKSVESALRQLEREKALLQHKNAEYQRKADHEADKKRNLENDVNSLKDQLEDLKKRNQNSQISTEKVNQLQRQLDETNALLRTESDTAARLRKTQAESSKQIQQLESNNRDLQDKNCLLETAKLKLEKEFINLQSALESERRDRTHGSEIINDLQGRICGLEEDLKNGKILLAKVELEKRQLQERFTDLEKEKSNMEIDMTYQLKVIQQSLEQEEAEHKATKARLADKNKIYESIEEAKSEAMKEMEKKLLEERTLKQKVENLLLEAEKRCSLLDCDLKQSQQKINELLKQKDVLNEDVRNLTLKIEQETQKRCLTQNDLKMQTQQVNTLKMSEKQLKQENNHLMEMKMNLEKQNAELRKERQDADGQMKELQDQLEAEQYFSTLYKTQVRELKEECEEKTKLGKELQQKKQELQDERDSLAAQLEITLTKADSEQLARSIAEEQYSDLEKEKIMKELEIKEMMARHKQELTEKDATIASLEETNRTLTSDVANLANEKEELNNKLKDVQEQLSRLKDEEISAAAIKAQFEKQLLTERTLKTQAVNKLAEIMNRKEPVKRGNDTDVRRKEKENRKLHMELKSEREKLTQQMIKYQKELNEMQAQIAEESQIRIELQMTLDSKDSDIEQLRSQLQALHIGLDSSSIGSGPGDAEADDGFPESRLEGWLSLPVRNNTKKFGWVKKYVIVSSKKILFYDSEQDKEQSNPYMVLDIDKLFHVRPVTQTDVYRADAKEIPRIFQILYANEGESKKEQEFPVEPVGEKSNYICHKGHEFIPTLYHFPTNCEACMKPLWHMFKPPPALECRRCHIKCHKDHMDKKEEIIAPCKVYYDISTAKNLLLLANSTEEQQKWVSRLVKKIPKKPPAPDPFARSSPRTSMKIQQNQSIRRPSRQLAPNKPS

ERBB4 (human) = ERBB4 (human) (UniProt Q15303)
ERBB4 (human), sequence (Q15303 whole entry, looked up): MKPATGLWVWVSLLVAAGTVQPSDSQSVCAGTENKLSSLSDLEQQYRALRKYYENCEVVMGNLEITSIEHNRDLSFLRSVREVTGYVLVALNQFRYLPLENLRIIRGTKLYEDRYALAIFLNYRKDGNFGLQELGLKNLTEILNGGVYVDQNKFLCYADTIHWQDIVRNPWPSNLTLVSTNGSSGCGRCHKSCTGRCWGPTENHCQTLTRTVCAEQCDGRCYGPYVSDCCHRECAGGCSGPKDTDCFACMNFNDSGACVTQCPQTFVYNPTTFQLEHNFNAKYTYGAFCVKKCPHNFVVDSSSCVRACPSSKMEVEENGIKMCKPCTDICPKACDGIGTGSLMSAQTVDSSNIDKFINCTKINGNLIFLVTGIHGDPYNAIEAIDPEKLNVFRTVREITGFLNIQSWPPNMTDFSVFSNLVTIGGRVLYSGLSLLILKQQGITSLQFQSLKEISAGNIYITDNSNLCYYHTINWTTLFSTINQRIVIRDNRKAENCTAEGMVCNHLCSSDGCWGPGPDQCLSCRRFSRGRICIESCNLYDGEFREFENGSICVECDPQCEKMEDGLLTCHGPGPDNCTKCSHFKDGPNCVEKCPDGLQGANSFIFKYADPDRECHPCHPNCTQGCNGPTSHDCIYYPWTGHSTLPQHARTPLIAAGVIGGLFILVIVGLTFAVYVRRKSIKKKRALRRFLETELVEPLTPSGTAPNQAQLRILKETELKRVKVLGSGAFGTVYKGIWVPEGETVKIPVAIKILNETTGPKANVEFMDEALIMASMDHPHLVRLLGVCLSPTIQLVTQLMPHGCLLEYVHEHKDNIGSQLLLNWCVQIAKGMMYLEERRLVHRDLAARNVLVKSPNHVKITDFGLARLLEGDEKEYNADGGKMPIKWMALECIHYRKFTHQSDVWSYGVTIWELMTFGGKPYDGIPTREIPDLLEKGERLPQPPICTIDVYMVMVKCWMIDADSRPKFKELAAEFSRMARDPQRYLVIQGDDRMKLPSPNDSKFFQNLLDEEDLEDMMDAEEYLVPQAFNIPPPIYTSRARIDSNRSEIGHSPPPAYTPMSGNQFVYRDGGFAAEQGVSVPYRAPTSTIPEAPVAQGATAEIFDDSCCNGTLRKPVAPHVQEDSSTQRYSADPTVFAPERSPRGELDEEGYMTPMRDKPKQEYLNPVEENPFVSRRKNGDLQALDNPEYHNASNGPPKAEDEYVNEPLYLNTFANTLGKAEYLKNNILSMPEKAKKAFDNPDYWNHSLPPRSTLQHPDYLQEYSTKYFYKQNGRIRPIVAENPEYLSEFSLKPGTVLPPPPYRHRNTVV

[2] = molecular target: JAK1 JH1 catalytic (human) (UniProt P23458)
BRSK2 (human) = BRSK2 (human) (UniProt Q8IWQ3)
DCLK3 (human) = DCLK3 (human) (UniProt Q9C098)
AURKC (human) = AURKC (human) (UniProt Q9UQB9)
BMPR2 (human) = BMPR2 (human) (UniProt Q13873)
BMPR2 (human), sequence (Q13873 whole entry, looked up): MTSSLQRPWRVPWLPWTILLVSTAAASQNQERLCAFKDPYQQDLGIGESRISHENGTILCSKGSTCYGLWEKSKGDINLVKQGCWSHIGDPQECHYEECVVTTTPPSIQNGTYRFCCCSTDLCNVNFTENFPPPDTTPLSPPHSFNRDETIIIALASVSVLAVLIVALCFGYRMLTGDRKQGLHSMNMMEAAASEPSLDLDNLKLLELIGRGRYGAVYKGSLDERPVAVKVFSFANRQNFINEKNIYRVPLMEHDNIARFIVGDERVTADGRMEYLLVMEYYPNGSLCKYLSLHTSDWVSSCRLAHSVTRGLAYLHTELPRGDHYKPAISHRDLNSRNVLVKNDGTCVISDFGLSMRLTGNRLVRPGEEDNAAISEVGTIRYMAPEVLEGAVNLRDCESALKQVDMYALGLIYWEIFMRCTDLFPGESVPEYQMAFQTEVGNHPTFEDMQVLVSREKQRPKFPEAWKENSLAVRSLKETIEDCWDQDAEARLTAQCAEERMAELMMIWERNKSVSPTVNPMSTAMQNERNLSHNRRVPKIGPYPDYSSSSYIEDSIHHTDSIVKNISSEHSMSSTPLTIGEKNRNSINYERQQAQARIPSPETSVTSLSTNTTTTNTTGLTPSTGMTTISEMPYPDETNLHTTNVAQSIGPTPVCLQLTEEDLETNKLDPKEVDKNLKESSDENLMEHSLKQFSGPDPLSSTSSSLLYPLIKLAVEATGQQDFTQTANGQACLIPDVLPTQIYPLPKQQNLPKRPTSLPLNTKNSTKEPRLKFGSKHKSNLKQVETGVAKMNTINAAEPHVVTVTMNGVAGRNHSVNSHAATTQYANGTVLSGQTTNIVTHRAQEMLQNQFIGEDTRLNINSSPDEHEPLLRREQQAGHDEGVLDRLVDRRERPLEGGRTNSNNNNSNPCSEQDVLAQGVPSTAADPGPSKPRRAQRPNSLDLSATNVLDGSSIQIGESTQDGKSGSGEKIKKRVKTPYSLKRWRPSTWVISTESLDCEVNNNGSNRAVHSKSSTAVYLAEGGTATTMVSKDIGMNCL

RAF1 (human) = RAF1 (human) (UniProt P04049)
PAK2 (human) = PAK2 (human) (UniProt Q13177)
MAPKAPK5 (human) = MAPKAPK5 (human) (UniProt Q8IW41)
[3] = tested on: FLT3 (human), P36888 [ITD]
PKN2 (human) = PKN2 (human) (UniProt Q16513)
BLK (human) = BLK (human) (UniProt P51451)
CSNK2A1 (human) = CSNK2A1 (human) (UniProt P68400)
MERTK (human) = MERTK (human) (UniProt Q12866)
AKT3 (human) = AKT3 (human) (UniProt Q9Y243)
MARK3 (human) = MARK3 (human) (UniProt P27448)
PDPK1 (human) = PDPK1 (human) (UniProt O15530)
CAMKK1 (human) = CAMKK1 (human) (UniProt Q8N5S9)
TYRO3 (human) = TYRO3 (human) (UniProt Q06418)
RPS6KA6 KD1 (human) = RPS6KA6 KD1 (human) (UniProt Q9UK32)
STK33 (human) = STK33 (human) (UniProt Q9BYT3)
RPS6KA2 KD1 (human) = RPS6KA2 KD1 (human) (UniProt Q15349)
IKBKB (human) = IKBKB (human) (UniProt O14920)
GSK3B (human) = GSK3B (human) (UniProt P49841)
NUAK1 (human) = NUAK1 (human) (UniProt O60285)

LIMK1 (human), sequence (P53667 whole entry, looked up): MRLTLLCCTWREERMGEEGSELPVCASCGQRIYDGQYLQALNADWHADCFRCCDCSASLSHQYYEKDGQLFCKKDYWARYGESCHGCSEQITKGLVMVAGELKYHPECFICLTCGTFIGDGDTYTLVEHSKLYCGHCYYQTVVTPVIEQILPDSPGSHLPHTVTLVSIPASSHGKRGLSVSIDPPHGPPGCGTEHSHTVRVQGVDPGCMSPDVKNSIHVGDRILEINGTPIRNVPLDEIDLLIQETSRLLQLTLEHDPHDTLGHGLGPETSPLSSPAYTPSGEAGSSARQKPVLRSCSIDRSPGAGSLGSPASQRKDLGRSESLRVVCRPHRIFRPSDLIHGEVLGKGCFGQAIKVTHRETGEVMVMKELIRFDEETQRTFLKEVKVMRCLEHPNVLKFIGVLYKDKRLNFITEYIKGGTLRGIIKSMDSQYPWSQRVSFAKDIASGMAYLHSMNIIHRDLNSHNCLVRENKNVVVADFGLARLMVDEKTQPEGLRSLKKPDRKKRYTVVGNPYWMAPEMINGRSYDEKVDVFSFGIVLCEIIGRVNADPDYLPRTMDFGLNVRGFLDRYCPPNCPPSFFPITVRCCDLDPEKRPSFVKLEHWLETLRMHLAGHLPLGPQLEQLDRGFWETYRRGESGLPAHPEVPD

C=CC(=O)Nc1cccc(Oc2nc(Nc3ccc(N4CCN(C)CC4)cc3OC)ncc2Cl)c1
kinase still bound, per cent of control (IGF1R (human)): 7.4% | kinase still bound, per cent of control (FGFR3 (human)): 100% | kinase still bound, per cent of control (PRKCD (human)): 100% | kinase still bound, per cent of control (NTRK3 (human)): 100% | kinase still bound, per cent of control (LIMK1 (human)): 100% | kinase still bound, per cent of control (MARK2 (human)): 100% | kinase still bound, per cent of control (CDC42BPB (human)): 100% | kinase still bound, per cent of control (DCLK2 (human)): 0.45% | kinase still bound, per cent of control (STK24 (human)): 100% | kinase still bound, per cent of control (CAMKK2 (human)): 10% | kinase still bound, per cent of control (MAP4K4 (human)): 100% | kinase still bound, per cent of control (PRKG2 (human)): 100% | kinase still bound, per cent of control [1]: 0.4% | kinase still bound, per cent of control (CSK (human)): 100% | kinase still bound, per cent of control (ROCK2 (human)): 27% | kinase still bound, per cent of control (ERBB4 (human)): 0.25% | kinase still bound, per cent of control [2]: 100% | kinase still bound, per cent of control (BRSK2 (human)): 100% | kinase still bound, per cent of control (DCLK3 (human)): 0.35% | kinase still bound, per cent of control (AURKC (human)): 4.5% | kinase still bound, per cent of control (BMPR2 (human)): 8.6% | kinase still bound, per cent of control (RAF1 (human)): 100% | kinase still bound, per cent of control (PAK2 (human)): 100% | kinase still bound, per cent of control (MAPKAPK5 (human)): 100% | kinase still bound, per cent of control [3]: 0.85% | kinase still bound, per cent of control (PKN2 (human)): 100% | kinase still bound, per cent of control (BLK (human)): 0.75% | kinase still bound, per cent of control (CSNK2A1 (human)): 100% | kinase still bound, per cent of control (MERTK (human)): 100% | kinase still bound, per cent of control (AKT3 (human)): 100% | kinase still bound, per cent of control (MARK3 (human)): 7.8% | kinase still bound, per cent of control (PDPK1 (human)): 100% | kinase still bound, per cent of control (CAMKK1 (human)): 18% | kinase still bound, per cent of control (TYRO3 (human)): 100% | kinase still bound, per cent of control (RPS6KA6 KD1 (human)): 100% | kinase still bound, per cent of control (STK33 (human)): 1.3% | kinase still bound, per cent of control (RPS6KA2 KD1 (human)): 16% | kinase still bound, per cent of control (IKBKB (human)): 100% | kinase still bound, per cent of control (GSK3B (human)): 100% | kinase still bound, per cent of control (NUAK1 (human)): 0.65%

COc1cc(C(=O)NC2CCN(C)CC2)ccc1Nc1ncc2c(n1)N(C1CCCC1)CCC(=O)N2C(C)C
kinase still bound, per cent of control (IGF1R (human)): 100% | kinase still bound, per cent of control (FGFR3 (human)): 100% | kinase still bound, per cent of control (PRKCD (human)): 0% | kinase still bound, per cent of control (NTRK3 (human)): 100% | kinase still bound, per cent of control (LIMK1 (human)): 100% | kinase still bound, per cent of control (MARK2 (human)): 100% | kinase still bound, per cent of control (CDC42BPB (human)): 100% | kinase still bound, per cent of control (DCLK2 (human)): 100% | kinase still bound, per cent of control (STK24 (human)): 100% | kinase still bound, per cent of control (CAMKK2 (human)): 100% | kinase still bound, per cent of control (MAP4K4 (human)): 100% | kinase still bound, per cent of control (PRKG2 (human)): 100% | kinase still bound, per cent of control [1]: 100% | kinase still bound, per cent of control (CSK (human)): 100% | kinase still bound, per cent of control (ROCK2 (human)): 100% | kinase still bound, per cent of control (ERBB4 (human)): 100% | kinase still bound, per cent of control [2]: 100% | kinase still bound, per cent of control (BRSK2 (human)): 0% | kinase still bound, per cent of control (DCLK3 (human)): 100% | kinase still bound, per cent of control (AURKC (human)): 100% | kinase still bound, per cent of control (BMPR2 (human)): 100% | kinase still bound, per cent of control (RAF1 (human)): 100% | kinase still bound, per cent of control (PAK2 (human)): 100% | kinase still bound, per cent of control (MAPKAPK5 (human)): 100% | kinase still bound, per cent of control [3]: 100% | kinase still bound, per cent of control (PKN2 (human)): 100% | kinase still bound, per cent of control (BLK (human)): 100% | kinase still bound, per cent of control (CSNK2A1 (human)): 100% | kinase still bound, per cent of control (MERTK (human)): 34% | kinase still bound, per cent of control (AKT3 (human)): 100% | kinase still bound, per cent of control (MARK3 (human)): 100% | kinase still bound, per cent of control (PDPK1 (human)): 100% | kinase still bound, per cent of control (CAMKK1 (human)): 100% | kinase still bound, per cent of control (TYRO3 (human)): 100% | kinase still bound, per cent of control (RPS6KA6 KD1 (human)): 100% | kinase still bound, per cent of control (STK33 (human)): 32% | kinase still bound, per cent of control (RPS6KA2 KD1 (human)): 100% | kinase still bound, per cent of control (IKBKB (human)): 100% | kinase still bound, per cent of control (GSK3B (human)): 100% | kinase still bound, per cent of control (NUAK1 (human)): 100%

Nc1ccc(-c2ccc3ncc4ccc(=O)n(-c5cccc(C(F)(F)F)c5)c4c3c2)cn1
kinase still bound, per cent of control (IGF1R (human)): 100% | kinase still bound, per cent of control (FGFR3 (human)): 75% | kinase still bound, per cent of control (PRKCD (human)): 88% | kinase still bound, per cent of control (NTRK3 (human)): 100% | kinase still bound, per cent of control (LIMK1 (human)): 100% | kinase still bound, per cent of control (MARK2 (human)): 100% | kinase still bound, per cent of control (CDC42BPB (human)): 96% | kinase still bound, per cent of control (DCLK2 (human)): 98% | kinase still bound, per cent of control (STK24 (human)): 98% | kinase still bound, per cent of control (CAMKK2 (human)): 99% | kinase still bound, per cent of control (MAP4K4 (human)): 71% | kinase still bound, per cent of control (PRKG2 (human)): 89% | kinase still bound, per cent of control [1]: 100% | kinase still bound, per cent of control (CSK (human)): 100% | kinase still bound, per cent of control (ROCK2 (human)): 81% | kinase still bound, per cent of control (ERBB4 (human)): 100% | kinase still bound, per cent of control [2]: 92% | kinase still bound, per cent of control (BRSK2 (human)): 100% | kinase still bound, per cent of control (DCLK3 (human)): 100% | kinase still bound, per cent of control (AURKC (human)): 100% | kinase still bound, per cent of control (BMPR2 (human)): 100% | kinase still bound, per cent of control (RAF1 (human)): 100% | kinase still bound, per cent of control (PAK2 (human)): 100% | kinase still bound, per cent of control (MAPKAPK5 (human)): 100% | kinase still bound, per cent of control [3]: 45% | kinase still bound, per cent of control (PKN2 (human)): 72% | kinase still bound, per cent of control (BLK (human)): 98% | kinase still bound, per cent of control (CSNK2A1 (human)): 79% | kinase still bound, per cent of control (MERTK (human)): 87% | kinase still bound, per cent of control (AKT3 (human)): 100% | kinase still bound, per cent of control (MARK3 (human)): 100% | kinase still bound, per cent of control (PDPK1 (human)): 100% | kinase still bound, per cent of control (CAMKK1 (human)): 94% | kinase still bound, per cent of control (TYRO3 (human)): 100% | kinase still bound, per cent of control (RPS6KA6 KD1 (human)): 80% | kinase still bound, per cent of control (STK33 (human)): 100% | kinase still bound, per cent of control (RPS6KA2 KD1 (human)): 100% | kinase still bound, per cent of control (IKBKB (human)): 89% | kinase still bound, per cent of control (GSK3B (human)): 100% | kinase still bound, per cent of control (NUAK1 (human)): 83%
